Like-named read-outs stand apart in the source and are kept apart here.
Key:
[1] = system: eight human cancer and 4 non-tumor cell lines; test: Cytotoxic MTS assay, whole panel of tested cell lines; type: cell-based
Description: (§1) In vitro cytotoxic activity of final compounds 5–82 was evaluated after 3 days of incubation against eight cell lines derived from human solid tumors including lung (A549 cells) and colon (HCT116 and HCT116p53−/−) carcinomas, as well as leukemia cell lines (CCRF-CEM, CEM-DNR, K562, and K562-TAX) and osteosarcoma (U2OS cells). For comparison, non-malignant BJ and MRC-5 fibroblasts, and BJLD and MCR-5LD fibroblasts doxorubicin-resistant cell lines were used. Concentrations inhibiting the cell growth by 50% (IC50) were determined using a quantitative metabolic staining with 3-(4,5-dimethylthiazol-2yl)-5-(3-carboxymethoxyphenyl)-2-(4-sulfophenyl)-2H-tetrazolium (MTS) and are summarized in (Table 3).
(§2) Cytotoxic activity was determined by MTS assay following 72 h of incubation. IC50 is the lowest concentration that kills 50% of cells. The standard deviation in cytotoxicity assays is typically up to 20% of the average value. […] The tested cell lines: A549 (lung adenocarcinoma), BJ (noncancerous human fibroblasts from foreskin), BJLD (human lung fibroblast doxorubicin-resistant), CCRF-CEM (childhood T cell acute lymphoblastic leukemia), a daunorubicin-resistant subline of CCRF-CEM cells (CEM-DNR bulk), HCT116 (colorectal carcinoma), HCT116p53−/− (HCT116 with deleted p53 gene), K562 (chronic myeloid leukemia), K562-TAX (chronic myeloid leukemia paclitaxel-resistant subline), MRC-5 (noncancerous human lung fibroblasts), MRC-5LD (noncancerous human lung fibroblasts doxorubicin-resistant), and U2OS (osteosarcoma).
(§3) All cell lines were purchased from the American Tissue Culture Collection (ATCC). The A549 cell line is lung adenocarcinoma. MRC-5 and BJ cell lines were used as a non-tumor control and represent human fibroblasts. (MRC-5 LD and BJLD) are doxorubicin-resistant human lung fibroblast cell lines. The CCRF-CEM line is derived from T lymphoblastic leukemia, evincing high chemosensitivity, whereas K562 represent cells from an […] patient sample with bcr-abl translocation. The daunorubicin-resistant subline of CCRF-CEM cells (CEM-DNR bulk) and paclitaxel-resistant subline K562-TAX were selected in our laboratory by the cultivation of maternal cell lines in increasing concentrations of daunorubicin or paclitaxel, respectively. The CEM-DNR bulk cells overexpress MRP-1 and P-glycoprotein protein, whereas K562-TAX cells overexpress P-glycoprotein only. Both proteins belong to the family of ABC transporters and are involved in the primary and/or acquired multidrug-resistance phenomenon. The U2OS cell line is derived from osteosarcoma, HCT116 is a colorectal tumor cell line and its p53 gene knock-down counterpart (HCT116p53−/−, Horizon Discovery Ltd., Cambridge, UK) is a model of human cancers with p53 mutation frequently associated with poor prognosis. The cells were maintained in nunc/corning 80 cm^2 plastic tissue culture flasks and cultured in a cell culture medium according to ATCC or Horizon recommendations (DMEM/RPMI 1640 with 5 g/L glucose, 2 mM glutamine, 100 U/mL penicillin, […], 10% fetal calf serum, and NaHCO3).
(§4) The activity of compounds was determined using a standard 3-(4,5-dimethylthiazol-2-yl)-5-(3-carboxymethoxyphenyl)-2-(4-sulfophenyl)-2H-tetrazolium (MTS) and it was performed at the Institute of Molecular and Translational Medicine by a robotic platform (High-ResBiosolutions). Cell suspensions were prepared and diluted according to the particular cell type and the expected target cell density (25,000–35,000 cells/mL based on cell growth characteristics). Cells were added by automatic pipettor (30 µL) into 384-well microtiter plates. All tested compounds were dissolved in 100% DMSO and four-fold dilutions of the intended test concentration were added in 0.15 µL aliquots at time zero to the microtiter plate wells by the echo acoustic non-contact liquid handler Echo550 (Labcyte). […]

[2] = system: HCT116 (colorectal carcinoma); test: Cytotoxic MTS assay, HCT116; type: cell-based, human
Description: as §1, §2, §3, §4

[3] = system: CEM-DNR bulk (daunorubicin-resistant subline of CCRF-CEM cells); test: Cytotoxic MTS assay, CEM-DNR; type: cell-based, human
Description: as §1, §2, §3, §4

Cytotoxic MTS assay, BJ = type: cell-based, human; conditions: human, BJ cells (noncancerous foreskin fibroblasts); MTS, 72 h of incubation
Description: as §1, §2, §3, §4

[4] = system: K562-TAX (chronic myeloid leukemia paclitaxel-resistant subline); test: Cytotoxic MTS assay, K562-TAX; type: cell-based, human
Description: as §1, §2, §3, §4

[5] = Cytotoxic MTS assay, MRC-5LD; type: cell-based, human; conditions: human; MTS, 72 h of incubation; read-out: Cytotoxic activity IC50, MRC5-LD
Description: as §1, §2, §3, §4

U2OS (osteosarcoma) = test: Cytotoxic MTS assay, U2OS; type: cell-based, human
Description: as §1, §2, §3, §4

[6] = system: HCT116p53−/− (HCT116 with deleted p53 gene); test: Cytotoxic MTS assay, HCT116p53−/−; type: cell-based, human; conditions: Homo sapiens, HCT-116; MTS, 72 h of incubation; read-out: Cytotoxic activity IC50, HCT116-p53
Description: as §1, §2, §3, §4

[7] = Cytotoxic MTS assay, MRC-5; type: cell-based, human; conditions: human, MRC-5 cells (noncancerous lung fibroblasts); MTS, 72 h of incubation
Description: as §1, §2, §3, §4

[8] = system: A549 (lung adenocarcinoma); test: Cytotoxic MTS assay, A549; type: cell-based, human
Description: as §1, §2, §3, §4

[9] = system: CCRF-CEM (childhood T cell acute lymphoblastic leukemia); test: Cytotoxic MTS assay, CCRF-CEM; type: cell-based, human
Description: as §1, §2, §3, §4

[10] = system: K562 (chronic myeloid leukemia); test: Cytotoxic MTS assay, K562; type: cell-based, human
Description: as §1, §2, §3, §4

[11] = Cytotoxic MTS assay, BJLD; type: cell-based, human; conditions: human, BJLD cells (fibroblasts, doxorubicin-resistant); MTS, 72 h of incubation
Description: as §1, §2, §3, §4

[12] = system: BJ (noncancerous human fibroblasts from foreskin); test: Cytotoxic MTS assay, BJ; type: cell-based
Description: as §1, §2, §3, §4

[13] = system: MRC-5LD (noncancerous human lung fibroblasts doxorubicin-resistant); test: Cytotoxic MTS assay, MRC-5LD; type: cell-based
Description: as §1, §2, §3, §4

[14] = system: MRC-5 (noncancerous human lung fibroblasts); test: Cytotoxic MTS assay, MRC-5; type: cell-based
Description: as §1, §2, §3, §4

[15] = system: BJLD (human lung fibroblast doxorubicin-resistant); test: Cytotoxic MTS assay, BJLD; type: cell-based
Description: as §1, §2, §3, §4

[16] = Homo sapiens, HCT-116, MTS, 72 h of incubation, read-out: Cytotoxic activity IC50, HCT116
[17] = Homo sapiens, CEM-DNR, MTS, 72 h of incubation, read-out: Cytotoxic activity IC50, CEM-DNR
[18] = Homo sapiens, K562-Tax, MTS, 72 h of incubation, read-out: Cytotoxic activity IC50, K562-TAX
[19] = Homo sapiens, U2OS, MTS, 72 h of incubation, read-out: Cytotoxic activity IC50, U2OS
[20] = Homo sapiens, A549, MTS, 72 h of incubation, read-out: Cytotoxic activity IC50, A549
[21] = Homo sapiens, CCRF-CEM, MTS, 72 h of incubation, read-out: Cytotoxic activity IC50, CCRF-CEM
[22] = Homo sapiens, K562, MTS, 72 h of incubation, read-out: Cytotoxic activity IC50, K562

| Structure (SMILES) | IC50 [2, 16] | IC50 [3, 17] | IC50 at 72 h (Cytotoxic MTS assay, BJ) | IC50 [4, 18] | IC50 at 72 h [5] | IC50 (U2OS (osteosarcoma); [19]) | IC50 [6] | IC50 at 72 h [7] | IC50 [8, 20] | IC50 [9, 21] | IC50 [10, 22] | IC50 at 72 h [11] | also measured |
| --- | --- | --- | --- | --- | --- | --- | --- | --- | --- | --- | --- | --- | --- |
| Cc1ccc(C)c(C(=O)OCCS(=O)(=O)c2cc[n+]([O-])c3cc(Cl)ccc23)c1 [Compound 71, 2-[(N-Oxide 7-chloroquinolin-4-yl)sulfonyl]ethyl-,5-dimethylbenzoate] | – | – | – | – | – | – | – | – | – | – | – | – | IC50 [1]: > 50 µM |
| [O-][S+](CCO)c1ccnc2cc(Cl)ccc12 (centres unmarked) [Compound 41, 2-[(7-Chloroquinolin-4-yl)sulfinyl]ethanol] | 23.5 µM | 35.1 µM | 33.3 µM | 21.4 µM | 24.5 µM | 22.1 µM | 22.5 µM | 26.5 µM | 34.4 µM | 4.52 µM | 27.8 µM | 28.5 µM | – |
| COc1cc(C(=O)OCCS(=O)(=O)c2cc[n+]([O-])c3cc(Cl)ccc23)cc(OC)c1OC [Compound 67, 2-[(N-Oxide 7-chloroquinolin-4-yl)sulfonyl]ethyl-3,4,5-trimethoxybenzoate] | 11.1 µM | 8.93 µM | 24.8 µM | 5.19 µM | 3.24 µM | 9.23 µM | 7.87 µM | 5.79 µM | 28.4 µM | 1.05 µM | 6.05 µM | 11.9 µM | – |
| COc1cc(OC)cc(C(=O)OCCC[S+]([O-])c2ccnc3cc(Cl)ccc23)c1 (centres unmarked) [Compound 55, 3-[(7-Chloroquinolin-4-yl)sulfinyl]propyl-,5-dimethoxybenzoate] | – | – | – | – | – | – | – | – | – | – | – | – | IC50 [1]: > 50 µM |
| COc1ccccc1C(=O)OCC[S+]([O-])c1ccnc2cc(Cl)ccc12 (centres unmarked) [Compound 47, 2-[(7-Chloroquinolin-4-yl)sulfinyl]ethyl-2-methoxybenzoate] | 15.9 µM | 26.8 µM | 31.2 µM | 11.3 µM | 26.1 µM | 19.1 µM | 11.3 µM | 28.2 µM | 32.2 µM | 2.74 µM | 16.9 µM | 30.7 µM | – |
| COc1cccc(C(=O)OCCC[S+]([O-])c2ccnc3cc(Cl)ccc23)c1OC (centres unmarked) [Compound 54, 3-[(7-Chloroquinolin-4-yl)sulfinyl]propyl-2,3-dimethoxybenzoate] | 14 µM | 10.1 µM | 30.4 µM | 7.63 µM | 25.1 µM | 17.2 µM | 9.19 µM | 27.2 µM | 25.8 µM | 1.09 µM | 14.1 µM | 26.9 µM | – |
| Cc1cc(C)cc(C(=O)OCCC[S+]([O-])c2ccnc3cc(Cl)ccc23)c1 (centres unmarked) [Compound 61, 3-[(7-Chloroquinolin-4-yl)sulfinyl]propyl-3,5-dimethylbenzoate] | 8.26 µM | 8.35 µM | 30.3 µM | 6.76 µM | 22.1 µM | 8.1 µM | 6.89 µM | 26.1 µM | 10.9 µM | 1.05 µM | 12.7 µM | 27.6 µM | – |
| COc1ccc(C(=O)OCCC[S+]([O-])c2ccnc3cc(Cl)ccc23)cc1[N+](=O)[O-] (centres unmarked) [Compound 59, 3-[(7-Chloroquinolin-4-yl)sulfinyl]propyl-4-methoxy-3-nitrobenzoate] | 8.86 µM | 8.81 µM | 21.6 µM | 6.12 µM | 10.3 µM | 5.15 µM | 6.81 µM | 23.7 µM | 7.76 µM | 1.2 µM | 8.77 µM | 10.2 µM | – |
| COc1cc(C(=O)OCCC[S+]([O-])c2ccnc3cc(Cl)ccc23)cc(OC)c1OC (centres unmarked) [Compound 57, 3-[(7-Chloroquinolin-4-yl)sulfinyl]propyl-3,4,5-trimethoxybenzoate] | 19.3 µM | 16 µM | 33 µM | 14.6 µM | 25.8 µM | 21.3 µM | 14.8 µM | 29.9 µM | 30.5 µM | 1.51 µM | 17.4 µM | 31.9 µM | – |
| COc1cccc(C(=O)OCCCS(=O)(=O)c2cc[n+]([O-])c3cc(Cl)ccc23)c1OC [Compound 74, 3-[(N-Oxide 7-chloroquinolin-4-yl)sulfonyl]propyl-2,3-dimethoxybenzoate] | – | – | – | – | – | – | – | – | – | – | – | – | IC50 [2]: 3.23 µM; IC50 [3]: 5.58 µM; IC50 [12]: 14.9 µM; IC50 [4]: 4.91 µM; IC50 [13]: 16.2 µM; Selectivity for leukemic and colorectal cancer cells compared to MRC-5 ([1]; leukemic and colorectal (with and without p53 deletion) cancer cells vs MRC-5): good selectivity; IC50 (U2OS (osteosarcoma)): 5.4 µM; IC50 [14]: 20.4 µM; IC50 [8]: 5.35 µM; IC50 [9]: 1.41 µM; IC50 [10]: 2.71 µM; IC50 [15]: 10.5 µM |
| Cc1ccc([N+](=O)[O-])c(C(=O)OCC[S+]([O-])c2ccnc3cc(Cl)ccc23)c1 (centres unmarked) [Compound 49, 2-[(7-Chloroquinolin-4-yl)sulfinyl]ethyl-5-methyl-2-nitrobenzoate] | 7 µM | 7.75 µM | 30.7 µM | 6.4 µM | > 50 µM | 11.2 µM | 7.56 µM | > 50 µM | 15.7 µM | 1.34 µM | 12.3 µM | 23.5 µM | – |
| COc1ccc(C(=O)OCC[S+]([O-])c2ccnc3cc(Cl)ccc23)cc1[N+](=O)[O-] (centres unmarked) [Compound 48, 2-[(7-Chloroquinolin-4-yl)sulfinyl]ethyl-4-methoxy-3-nitrobenzoate] | 17 µM | 12.9 µM | 29.2 µM | 9.03 µM | 24 µM | 18.6 µM | 10 µM | 27.8 µM | 25 µM | 1.42 µM | 16.9 µM | 27.5 µM | – |
